From patent publication US20230286956A1 (DUKSUNG WOMEN'S UNIVERSITY INDUSTRY-ACADEMIC COOPERATION …, priority 2020, published 2023) come the findings set out here.

Data set [1] relates to wild-type red mold strain GZ3639. As to the kind of experiment: Inhibition of spore germination / reactive oxygen species generation through NOX enzyme inhibition in red mold. It counts as cell-based. As to conditions: 24 h, read-out: IC50 (µM), compound concentration at which the spore germination inhibition rate was 50%. Here is the method:
When NADPH oxidase (NOX), which is involved in the generation of reactive oxygen species in red mold, is inhibited, normal mycelial growth is inhibited, abnormal form of monocyclic conidia is formed, and germination is inhibited. The abnormal phenotype caused by the reduction of reactive oxygen species in red mold can be easily observed under an optical microscope. Through this, the ability to inhibit generation of reactive oxygen species through NOX inhibition was evaluated.
Specifically, for the evaluation of compound activity, 0.1 mM of the compound was added to a minimum medium (MM20) spore suspension diluted to ⅕. Spores ([…]) of wild-type red mold strain GZ3639 were inoculated into the medium and cultured at 25° C. for 24 h, followed by microscopic observation. Compounds having a germination inhibition rate and microcycle conidiation to be 50% or more of those in normal germination were selected, and their activities were evaluated at concentrations of 50 µM, 25 µM, and 10 µM. At this time, the activity of substances having a germination inhibition rate of 95% at 10 µM was further evaluated at concentrations of 5 µM, 1 µM, 0.5 µM, and 0.1 µM. Based on the result of this evaluation, the compound concentration (inhibitory concentration 50%, IC50) at which the spore germination inhibition rate was 50% was determined.

A further data set can be described thus: in vivo. On the set-up: species or system SD rats. As to conditions: SD, rat, po. The procedure:
The bioavailability (BA) and pharmacokinetic properties of the compounds of the present invention were evaluated in an animal model. The compounds were administered to 8-week-old SD rats (300 to 350 g) at a dose of 2 to 5 mg/kg through oral and intravenous administration routes. After administration, blood was collected at regular time intervals and the time course of blood concentration was analyzed.

The subject of data set [2] is substantia nigra dopaminergic neurons. The experiment in a line: Inhibition of dopaminergic nerve cell death in MPTP animal model of Parkinson's disease (tyrosine hydroxylase immunostaining). It counts as in vivo, C57B16/J mice. As to conditions: Evaluations 3 and 4: intraperitoneal 5 mg/kg, 1 week before and after MPTP. Here is the method: The dopaminergic neuronal cell protecting effect of the compound of the present invention was evaluated in an animal model of Parkinson’s disease. The animal model used was 7-week-old C57B16/J mice (23 to 25 g), to which MPTP (15 mg/kg) was administered 4 times at 1.5 hour intervals. For 1 to 2 days after administration, behavior was noticeably slowed and gradually recovered. In 1 week after MPTP administration, behavior was almost normalized to a level similar to that of normal mice.
In order to evaluate the efficacy of the compounds of the present invention, Compounds 1aaa (Compound 1), lace (Compound 27), 1ahe (Compound 44) and 1aje (Compound 62) were each administered at a dose of 5 mg/kg for 1 week, then MPTP (15 mg/kg x 4 times) was injected. These compounds were additionally administered for 1 week, and then dopamine innervation in the substantia nigra region was analyzed through immunostaining.
Specifically, selegiline, 1aaa, lace, 1ahe, 1aje, and apocynin were administered at a dose of 5 mg/kg for 7 days, then MPTP (15 mg/kg x 4 times) was administered to induce damage to dopaminergic neurons. After 7 days of additional administration of the compounds at the same dose, the animals were sacrificed. Immunostaining was performed using tyrosine hydroxylase antibody to measure the survival rate of substantia nigra dopaminergic neurons. After immunostaining, the number of surviving dopaminergic neurons was analyzed. The results are illustrated in FIG. 8.
In order to evaluate the efficacy of the compounds of the present invention, Compounds 1abv (Compound 22), 1abw (Compound 23), and 1ahs (Compound 52) were each intraperitoneally administered at a dose of 5 mg/kg for 1 week or orally administered at a dose of 50 mg/kg, then MPTP (15 mg/kg x 4 times) was injected. These compounds were additionally administered for 1 week, and then dopamine innervation in the substantia nigra region was analyzed through immunostaining. The results are illustrated in FIG. 9.
In order to evaluate the dopaminergic neuroprotective effect of the compounds of the present invention, Compounds 1aja (Compound 59) and 1abk (Compound 17) were each intraperitoneally administered at a dose of 5 mg/kg for 1 week, then MPTP (15 mg/kg x 4 times) was injected. These compounds were additionally administered for 1 week. After immunostaining using brain slices from each group, surviving dopaminergic neurons were photographed under a microscope and analyzed. The results are illustrated in FIG. 10.
In order to evaluate the dopaminergic neuroprotective effect of the compounds of the present invention, Compounds 1ajs (Compound 63), 1ajy (Compound 67), and 1aqj (Compound 85) were each intraperitoneally administered at a dose of 5 mg/kg for 1 week, then MPTP (15 mg/kg x 4 times) was injected. These compounds were additionally administered for 1 week. After immunostaining using brain slices from each group, surviving dopaminergic neurons were photographed under a microscope and analyzed. The results are illustrated in FIG. 11.

The nature of data set [3]: Single acute toxicity evaluation 2 (2000 mg/kg oral). The class given is in vivo, ICR mice. The procedure:
Acute toxicity properties after single administration of the compounds of the present invention were evaluated in an animal model.

The structures appear in SMILES notation.

The term bioavailability denotes the share of a dose that reaches the circulation, judged against a reference dose that is usually intravenous. A low value points to little systemic uptake.

Regarding `CN1C(=[Se])N(c2ccccc2)C(=O)/C1=C\c1ccc(O)cc1O` [Compound 1, 5-(2,4-dihydroxybenzylidene)-1-methyl-3-phenyl-2-selenoxoimidazolidine-4-on], in data set [1], the IC50 was 20 µM. The bioavailability in the data set “in vivo” is 13%.
Consider `Cc1ccc(N2C(=O)C(=Cc3ccc(N4CCCC4)cc3)N(C)C2=[Se])cc1` [Compound 1abk, 1-methyl-5-(4-pyrrolidine-1-yl)benzylidene-2-selenoxo-3-(4-tolyl)imidazolidine-4-on], for which the “survival rate of dopaminergic neurons, of that in the control group” value (from here on “survival rate of dopaminergic neurons”) in data set [2] came to 66%.
Take `CN1C(=[Se])N(CCc2ccccc2)C(=O)C1=Cc1ccc(N2CCOCC2)cc1` [Compound 1ahs]: the “change in body weight” value in data set [3] (day 0) amounted to 100; in data set [3] (day 2), 97.6; in data set [3] (day 4) it was 100.0; in data set [3] (day 8), 103.8; in data set [3] (day 10), 104.5; in data set [3] (day 14) it was 105.0.
For the compound `CCCCCCN1C(=O)C(=Cc2ccc(O)cc2O)N(C)C1=[Se]` [Compound 1aja], the “survival rate of dopaminergic neurons” value in data set [2] stood at 76%. Also, the “change in body weight” value in data set [3] (day 0) is 100; in data set [3] (day 2) it was 95.6; in data set [3] (day 4), 102.8; in data set [3] (day 8) it was 105.8; in data set [3] (day 10) it was 107.8; in data set [3] (day 14) it was 107.6.
Consider `CN1C(=[Se])N(CCCN2CCOCC2)C(=O)C1=Cc1ccc(Cl)cc1` [Compound 1aqj], for which, in data set [2], the “survival rate of dopaminergic neurons” value came to 75.1%. The “change in body weight” value in data set [3] (day 0) is listed as 100; in data set [3] (day 2), 94.6; in data set [3] (day 4) it was 99.8; in data set [3] (day 8), 104.8; in data set [3] (day 10), 105.9; in data set [3] (day 14), 106.6.
Turning to `Cc1ccc(N2C(=O)/C(=C\c3ccc(N4CCCCC4)cc3)N(C)C2=[Se])cc1` [Compound 15, 1-methyl-5-(4-piperidine-1-yl)benzylidene-3-(4-tolyl)-2-selenoxoimidazolidine-4-on], the IC50 in data set [1] is 11 µM. The bioavailability in “in vivo” came to 11%.
`Cc1ccc(N2C(=O)/C(=C\c3ccc(N4CCN(CCO)CC4)cc3)N(C)C2=[Se])cc1` [Compound 21, 5-(4-(4-(2-hydroxyethyl)piperazine-1-yl)benzylidene)-1-methyl-2-selenoxo-3-(4-tolyl)imidazoline-4-on] returned a bioavailability in “in vivo” of 11%.
With `Cc1ccc(N2C(=O)/C(=C\c3ccc(NCCOCCO)cc3)N(C)C2=[Se])cc1` [Compound 22, 5-(4-((2-(2-hydroxyethoxy)ethyl)amino)benzylidene)-1-methyl-2-selenoxo-3-(4-tolyl)imidazoline-4-on], in data set [1], the IC50 stood at 2.3 µM. This compound yielded a bioavailability in “in vivo” of 55%.
On to `CN1C(=[Se])N(CCCN2CCOCC2)C(=O)/C1=C\c1ccc(Cl)cc1` [Compound 85, 5-(4-chlorobenzylidene)-1-methyl-3-(3-morpholinopropyl)-2-selenoxoimidazolidine-4-on], for which, in data set [1], the IC50 is 5 µM.
The same measure, in the same setting: as for `CN1C(=[Se])N(CCCCCCF)C(=O)/C1=C\c1cc(O)cc(O)c1` [Compound 88], the figure is 18 µM.
As to `CN1C(=[Se])N(CCCCCF)C(=O)/C1=C\c1ccc(O)cc1O` [Compound 89, 5-(2,4-dihydroxybenzylidene)-3-(5-fluoropentyl)-1-methyl-2-selenoxoimidazolidine-4-on], the IC50 in data set [1] is 13 µM.
On the same count and under the same terms, as for `CCCCCN1C(=O)/C(=C\c2ccc(O)cc2O)N(C)C1=[Se]` [Compound 93, 5-(2,4-dihydroxybenzylidene)-1-methyl-3-pentyl-2-selenoxoimidazolidine-4-on], the figure is 2.9 µM.
`CCN1C(=[Se])N(c2ccccc2)C(=O)/C1=C\c1ccc(O)cc1O` [Compound 95, 5-(2,4-dihydroxybenzylidene)-1-ethyl-3-phenyl-2-selenoxoimidazolidine-4-on]: in data set [1], the IC50 worked out at 22 µM.
Same read-out and setting: for `CCN1C(=[Se])N(c2ccccc2)C(=O)/C1=C\c1cccc(O)c1O` [Compound 96, 5-(2,3-dihydroxybenzylidene)-1-ethyl-3-phenyl-2-selenoxoimidazolidine-4-on] the value was 44 µM.
Same read-out and setting: for `CCc1ccc(N2C(=O)/C(=C\c3ccc(Br)cc3)N(CC)C2=[Se])cc1` [Compound 101, 5-(4-bromobenzylidene)-1-ethyl-3-(4-ethylphenyl)-2-selenoxoimidazolidine-4-on] the value was 45 µM; for `CCc1ccc(N2C(=O)/C(=C\c3ccc(N4CCCC4)cc3)N(CC)C2=[Se])cc1` [Compound 102, 1-ethyl-3-(4-ethylphenyl)-5-(4-pyrrolidine-1-yl)benzylidene-2-selenoxoimidazolidine-4-on], 40 µM; for `O=C1/C(=C\c2cccc(O)c2O)N(Cc2ccccc2)C(=[Se])N1c1ccccc1` [Compound 104, 1-benzyl-5-(2,3-dihydroxybenzylidene)-3-phenyl-2-selenoxoimidazolidine-4-on], 23 µM.
Same read-out and setting: for `O=C1/C(=C\c2ccc(O)c(O)c2)N(Cc2ccccc2)C(=[Se])N1c1ccccc1` [Compound 106, 1-benzyl-5-(3,4-dihydroxybenzylidene)-3-phenyl-2-selenoxoimidazolidine-4-on] the value was 34 µM; for `O=C1/C(=C\c2cc(O)cc(O)c2)N(Cc2ccccc2)C(=[Se])N1c1ccccc1` [Compound 107, 1-benzyl-5-(3,5-dihydroxybenzylidene)-3-phenyl-2-selenoxoimidazolidine-4-on], 23 µM; for `CCc1ccc(N2C(=O)/C(=C\c3ccc(O)cc3O)N(Cc3ccccc3)C2=[Se])cc1` [Compound 108, 1-benzyl-5-(2,4-dihydroxybenzylidene)-3-(4-ethylphenyl)-2-selenoxoimidazolidine-4-on], 22 µM.
On to `CCc1ccc(N2C(=O)/C(=C\c3ccc(O)c(O)c3)N(Cc3ccccc3)C2=[Se])cc1` [Compound 109, 1-benzyl-5-(3,4-dihydroxybenzylidene)-3-(4-ethylphenyl)-2-selenoxoimidazolidine-4-on], for which the IC50 in data set [1] worked out at 29 µM.
Same read-out and setting: as for `CCc1ccc(N2C(=O)/C(=C\c3cc(O)cc(O)c3)N(Cc3ccccc3)C2=[Se])cc1` [Compound 110, 1-benzyl-5-(3,5-dihydroxybenzylidene)-3-(4-ethylphenyl)-2-selenoxoimidazolidine-4-on], the figure is 23 µM.
As to `O=C1/C(=C\c2cccc(O)c2O)N(Cc2ccccc2)C(=[Se])N1c1ccc(Cl)cc1` [Compound 111, 1-benzyl-3-(4-chlorophenyl)-5-(2,3-dihydroxybenzylidene)-2-selenoxoimidazolidine-4-on], in data set [1], the IC50 worked out at 26 µM.
Regarding `O=C1/C(=C\c2ccc(O)c(O)c2)N(Cc2ccccc2)C(=[Se])N1c1ccc(Cl)cc1` [Compound 112, 1-benzyl-3-(4-chlorophenyl)-5-(3,4-dihydroxybenzylidene)-2-selenoxoimidazolidine-4-on], the IC50 in data set [1] is 31 µM.
